One data set deals with PARP-2 (Homo sapiens (Human), UniProt Q9UGN5). Particulars: probe P1; for DC50: read-out: PARP-2 (DC50 μM); for Kd: read-out: PARP-2 (Kd μM).
A further data set concerns the target PARP-3 (Homo sapiens (Human), UniProt Q9Y6F1). Particulars: probe P1; for DC50: read-out: PARP-3 (DC50 μM); for Kd: read-out: PARP-3 (Kd μM).
The next data set deals with PARP-1 (Homo sapiens (Human), UniProt P09874). To be noted: for DC50: read-out: PARP-1 (DC50 μM), probe P1, <0.25 = assay sensitivity limit; for Kd: read-out: PARP-1 (Kd μM), probe P3, <0.01 = assay sensitivity limit.
Data set [1] can be described thus: Pharmacokinetics and oral bioavailability in the mouse. In kind it is in vivo. To be noted: for clearance / Vd / AUC / half-life: male, Balb, Nu/Nu, plasma; for clearance / Vd: IV bolus 10 mg/kg; for clearance / Vd / AUC / half-life / C-max (oral): mean; for clearance: read-out: CL (IV bolus); for Vd: read-out: Vdss (IV bolus); for AUC / half-life / C-max (oral): oral 10 mg/kg; for half-life: read-out: T½ (oral) (converted); for F on AUC: oral vs IV dose-normalized AUC, 10 mg/kg.
Method: A single administration at the dose of 10 mg/kg was given and three male animals for each route were used. […] After capping and vortex mixing, the plate was centrifuged for 15 minutes at 4000 rpm. The supernatant was considered as final extract and injected onto the LC-MS-MS system (UPLC system: Waters Acquity using BEH C18 50*2.1 mm 1.7 μm analytical column; MS instrument: Waters TQD equipped with Electro-Spray source operating in positive ion mode). Lower limit of quantification is 5.0 ng/mL, upper limit of quantification is 5000 ng/mL. Non-compartmental method (linear trapezoidal rule and linear regression analysis of natural log-transformed plasma concentrations vs. time data) was used. Absolute bioavailability (F) was calculated from the ratio of average oral to IV (intravenous) dose-normalized plasma AUC (area under curve) values.

Data set [2] deals with Capan-1 human pancreatic cancer tumors. Particulars: temozolomide alone 50 mg/kg oral, days 3-8.
Method: Fragments of Capan-1 human pancreatic cancer tumors were implanted subcutaneously. […] Each group included seven animals. The treatment started one day after randomization. Compounds of formula (I) were administered by oral route as a methocel suspension. Tumor dimension was measured regularly by calipers during the experiments and tumor mass was calculated as described in Simeoni M. et al., Cancer Res 2004, 64, 1094-1101.
Temozolomide was administered by oral route at the dose of 50 mg/kg on days 3, 4, 5, 6, 7 and 8. Tumor growth and body weight were measured every 3 days. Tumor growth was assessed by caliper. The two diameters were recorded and the tumor weight was calculated according to the following formula: length (mm)×width^2/2. […] This delay (T−C value) was defined as the difference of time (in days) required for the treatment group (T) and the control group (C) tumors to reach a predetermined size (1 g). Toxicity was evaluated on the basis of body weight reduction and animal survival rate.

Molecules are shown by their SMILES. Bounds are passed on as bounds.

Sequence of PARP-2 (Q9UGN5 whole entry): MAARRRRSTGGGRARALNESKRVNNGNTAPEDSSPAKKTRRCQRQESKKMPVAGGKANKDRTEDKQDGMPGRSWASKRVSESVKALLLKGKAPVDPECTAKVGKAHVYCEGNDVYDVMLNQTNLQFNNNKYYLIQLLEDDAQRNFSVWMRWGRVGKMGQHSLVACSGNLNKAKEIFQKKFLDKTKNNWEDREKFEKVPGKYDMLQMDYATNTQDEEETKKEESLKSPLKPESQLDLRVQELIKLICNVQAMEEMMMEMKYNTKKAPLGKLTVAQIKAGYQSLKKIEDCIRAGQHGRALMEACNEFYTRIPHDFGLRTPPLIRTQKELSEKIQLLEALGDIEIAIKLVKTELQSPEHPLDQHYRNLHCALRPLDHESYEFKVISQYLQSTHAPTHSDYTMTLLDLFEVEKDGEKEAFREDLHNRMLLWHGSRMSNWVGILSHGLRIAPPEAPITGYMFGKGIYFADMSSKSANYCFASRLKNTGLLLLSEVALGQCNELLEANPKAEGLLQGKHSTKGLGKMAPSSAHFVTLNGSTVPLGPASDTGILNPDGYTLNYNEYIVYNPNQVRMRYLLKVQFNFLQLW
Sequence of PARP-1 (P09874 whole entry): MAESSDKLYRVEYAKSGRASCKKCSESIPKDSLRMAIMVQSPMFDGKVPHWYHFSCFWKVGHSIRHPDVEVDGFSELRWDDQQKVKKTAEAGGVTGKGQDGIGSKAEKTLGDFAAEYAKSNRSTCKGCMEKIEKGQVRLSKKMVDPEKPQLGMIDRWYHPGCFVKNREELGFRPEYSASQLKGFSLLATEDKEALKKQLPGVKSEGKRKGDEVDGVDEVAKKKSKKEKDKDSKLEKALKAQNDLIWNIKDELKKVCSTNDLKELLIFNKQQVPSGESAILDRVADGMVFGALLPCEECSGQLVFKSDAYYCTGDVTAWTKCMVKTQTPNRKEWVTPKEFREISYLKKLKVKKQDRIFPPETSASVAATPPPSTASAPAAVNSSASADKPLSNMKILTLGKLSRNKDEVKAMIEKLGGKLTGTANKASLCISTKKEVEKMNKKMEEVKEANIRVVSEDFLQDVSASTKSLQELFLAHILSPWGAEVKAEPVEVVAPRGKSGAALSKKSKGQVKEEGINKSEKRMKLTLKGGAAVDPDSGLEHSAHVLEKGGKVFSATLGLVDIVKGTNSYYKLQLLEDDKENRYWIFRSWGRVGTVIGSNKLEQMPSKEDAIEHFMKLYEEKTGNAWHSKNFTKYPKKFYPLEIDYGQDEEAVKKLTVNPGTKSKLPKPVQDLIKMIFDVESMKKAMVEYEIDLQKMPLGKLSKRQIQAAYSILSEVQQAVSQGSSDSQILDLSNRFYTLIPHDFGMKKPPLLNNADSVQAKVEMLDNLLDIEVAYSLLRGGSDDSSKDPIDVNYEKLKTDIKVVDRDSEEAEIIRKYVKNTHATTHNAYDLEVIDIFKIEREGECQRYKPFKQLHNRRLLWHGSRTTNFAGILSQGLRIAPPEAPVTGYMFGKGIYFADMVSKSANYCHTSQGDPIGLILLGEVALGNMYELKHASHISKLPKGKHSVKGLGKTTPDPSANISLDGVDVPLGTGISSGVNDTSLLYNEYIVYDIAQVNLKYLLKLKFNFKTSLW
Sequence of PARP-3 (Q9Y6F1 whole entry): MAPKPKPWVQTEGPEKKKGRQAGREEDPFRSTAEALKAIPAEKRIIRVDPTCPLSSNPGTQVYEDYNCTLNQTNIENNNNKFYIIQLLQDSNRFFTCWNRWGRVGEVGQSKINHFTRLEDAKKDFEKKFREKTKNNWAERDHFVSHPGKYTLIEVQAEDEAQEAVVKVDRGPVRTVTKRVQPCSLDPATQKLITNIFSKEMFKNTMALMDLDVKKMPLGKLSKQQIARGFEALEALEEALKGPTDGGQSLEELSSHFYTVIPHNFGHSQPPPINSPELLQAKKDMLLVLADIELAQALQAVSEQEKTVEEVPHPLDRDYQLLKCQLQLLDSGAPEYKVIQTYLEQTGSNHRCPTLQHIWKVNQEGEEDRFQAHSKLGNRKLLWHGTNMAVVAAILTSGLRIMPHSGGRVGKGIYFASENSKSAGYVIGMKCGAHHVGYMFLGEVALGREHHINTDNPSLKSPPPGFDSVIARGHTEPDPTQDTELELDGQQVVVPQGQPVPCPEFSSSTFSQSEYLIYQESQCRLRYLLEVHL
Method for PARP-1: (§1) Affinity evaluation of the tested compounds and their selectivity with respect to the different PARP isoforms of interest was assessed in a displacement assay.
(§2) a) providing a reaction mixture containing:
(§3) the PARP protein isoform under investigation,
a compound of formula (IP):
(§4) wherein R11 is hydrogen or a methyl group, B is (CH2)n—NH group wherein n is 2 to 6; m is 0 or 1 and X^− is a counterion, and
serial dilutions of the test compound;
(§5) b) comparing the polarization signal generated in the absence of the test compound with the one generated in the presence of different concentrations of the test compound, and
(§6) c) evaluating the ability of the test compound to displace the compound of formula (IP) as defined above indicated from a decreased fluorescence polarization level.
(§7) The 5H-phenanthridin-6-one-derived probe (IP) was selected for its capability of binding to the PARP proteins, both encompassing full-length native proteins and fragment thereof.
(§8) The polarization signal can be measured, e.g., by a plate reader such as the Saphire2 (Tecan). Data analysis was performed, e.g., by using the Dynafit software. Displacement data were also fitted, e.g., by using Excel spreadsheet (Microsoft Inc. Seattle, USA) to a four parameter logistic model (4PL), or Hill-Slope model. The assay was used to test compounds of the present invention. […] Specific probes of formula (IP) used in the assay are: • P1. 9-Dimethylamino-11,11-dimethyl-1-(3-{methyl-[(6-oxo-5,6-dihydro-phenanthridin-2-ylcarbamoyl)-methyl]-carbamoyl}-propyl)-2,3,4,11-tetrahydro-naphtho[2,3-g]quinolinium trifluoroacetate; • P2. 9-Dimethylamino-11,11-dimethyl-1-[3-(3-{[(6-oxo-5,6-dihydro-phenanthridin-2-ylcarbamoyl)-methyl]-amino}-propylcarbamoyl)-propyl]-2,3,4,11-tetrahydro-naphtho[2,3-g]quinolinium trifluoroacetate; • P3. 9-Dimethylamino-11,11-dimethyl-1-[3-(6-{[(6-oxo-5,6-dihydro-phenanthridin-2-ylcarbamoyl)-methyl]-amino}-hexylcarbamoyl)-propyl]-2,3,4,11-tetrahydro-naphtho[2,3-g]quinolinium trifluoroacetate.
Method for PARP-2: as §1, §2, §3
a compound of formula (IP):
as §4
serial dilutions of the test compound;
as §5, §6, §7, §8
Method for PARP-3: as §1, §2, §3
a compound of formula (IP):
as §4
serial dilutions of the test compound;
as §5, §6, §7, §8

`NC(=O)c1cccc2[nH]n(C3CCNCC3)c(=O)c12` [Compound 1, 3-oxo-2-(piperidin-4-yl)-2,3-dihydro-1H-indazole-4-carboxamide]: the DC50 on PARP-2 was 1.5 µM; on PARP-3, 0.58 µM; at PARP-1 it was less than 0.25 µM. In addition, the dissociation constant (Kd) (commonly the constant that tells how readily two partners part at equilibrium) at PARP-2 is 0.78 µM; on PARP-1 it was 0.08 µM.
For `NC(=O)c1cccc2[nH]n(C3CCN(C4CCCC4)CC3)c(=O)c12` [Compound 2, 2-(1-cyclopentylpiperidin-4-yl)-3-oxo-2,3-dihydro-1H-indazole-4-carboxamide], on PARP-2, the DC50 was found to be 2 µM and the Kd stood at 1.49 µM. The DC50 at PARP-3 was greater than 10 µM.
Consider `NC(=O)c1cccc2[nH]n(C3CCN(C4CCC(F)(F)CC4)CC3)c(=O)c12` [Compound 4, 2-[1-(4,4-difluorocyclohexyl)piperidin-4-yl]-3-oxo-2,3-dihydro-1H-indazole-4-carboxamide], for which the DC50 on PARP-2 and on PARP-3 was greater than 10 µM throughout.
For the compound `Cn1c2cccc(C(N)=O)c2c(=O)n1C1CCN(C2CCCCC2)CC1` [Compound 5, 2-(1-cyclohexylpiperidin-4-yl)-1-methyl-3-oxo-2,3-dihydro-1H-indazole-4-carboxamide], on PARP-2, the DC50 worked out at 0.91 µM and the dissociation constant (Kd) stood at 0.54 µM. Also, the DC50 on PARP-3 is 2.15 µM. Moreover, in data set [1], the clearance came to 41 mL/min/kg, the Vd was determined as 4.3 L/kg, the AUC (commonly concentration integrated over time) stood at 10.6 µM·h and the half-life was 1.89 h. For the same compound, in data set [1], the “C-max (oral)” value was determined as 4.77 µM and the “F on AUC” value is 109%.
For the compound `Cn1c2cccc(C(N)=O)c2c(=O)n1C1CCN(C2CCCC2)CC1` [Compound 7, 2-(1-cyclopentylpiperidin-4-yl)-1-methyl-3-oxo-2,3-dihydro-1H-indazole-4-carboxamide], the figures for the DC50 on PARP-2 and at PARP-3 were less than 0.25 µM and 2.58 µM, respectively. The dissociation constant Kd at PARP-2 is 0.05 µM.
With `CC(C)N1CCC(n2c(=O)c3c(C(N)=O)cccc3n2C)CC1` [Compound 14, 1-methyl-3-oxo-2-[1-(propan-2-yl)piperidin-4-yl]-2,3-dihydro-1H-indazole-4-carboxamide], on PARP-2, the DC50 was less than 0.25 µM and the dissociation constant Kd is 0.03 µM. Besides, at PARP-3, the DC50 is greater than 10 µM.
Turning to `NC(=O)c1cccc2[nH]n(C3CCN(C4CCC4)CC3)c(=O)c12` [Compound 16, 2-(1-cyclobutylpiperidin-4-yl)-3-oxo-2,3-dihydro-1H-indazole-4-carboxamide], the DC50 is 2.57 µM on PARP-2 and greater than 10 µM on PARP-3.
Consider `Cn1c2cccc(C(N)=O)c2c(=O)n1C1CCN(C2CCC2)CC1` [Compound 18, 2-(1-cyclobutylpiperidin-4-yl)-1-methyl-3-oxo-2,3-dihydro-1H-indazole-4-carboxamide], for which the DC50 is less than 0.25 µM at PARP-2 and 2.88 µM on PARP-3.
For `NC(=O)c1cc(F)cc2[nH]n(C3CCNCC3)c(=O)c12` [Compound 20, 6-fluoro-3-oxo-2-(piperidin-4-yl)-2,3-dihydro-1H-indazole-4-carboxamide], the values for the DC50 at PARP-2, at PARP-3 and on PARP-1 were 0.5 µM, 0.25 µM and less than 0.25 µM, respectively. Besides, the Kd was 0.3 µM on PARP-2, 0.05 µM at PARP-3 and less than 0.01 µM at PARP-1.
As to `Cn1c2cc(F)cc(C(N)=O)c2c(=O)n1C1CCNCC1` [Compound 21, 6-fluoro-1-methyl-3-oxo-2-(piperidin-4-yl)-2,3-dihydro-1H-indazole-4-carboxamide], the DC50 is less than 0.25 µM on PARP-2, 0.22 µM on PARP-3 and less than 0.25 µM at PARP-1. Besides, the values for the dissociation constant (Kd) at PARP-2, at PARP-3 and on PARP-1 were 0.07 µM, 0.04 µM and less than 0.01 µM, respectively.
As for `Cn1c2cc(F)cc(C(N)=O)c2c(=O)n1C1CCN(C2CCCCC2)CC1` [Compound 22, 2-(1-cyclohexylpiperidin-4-yl)-6-fluoro-1-methyl-3-oxo-2,3-dihydro-1H-indazole-4-carboxamide], at PARP-2, the DC50 was determined as 0.79 µM and the dissociation constant (Kd) is 0.5 µM. Also, on PARP-3, the DC50 was 0.7 µM and the Kd is 0.27 µM. Moreover, in data set [1], the clearance was determined as 38.7 mL/min/kg, the Vd turned out to be 6.4 L/kg, the AUC was 12.8 µM·h and the half-life was 2.25 h. In data set [1], the “C-max (oral)” value turned out to be 4.72 µM and the “F on AUC” value is listed as 150%.
As for `NC(=O)c1cc(F)cc2[nH]n(C3CCN(C4CCCCC4)CC3)c(=O)c12` [Compound 23, 2-(1-cyclohexylpiperidin-4-yl)-6-fluoro-3-oxo-2,3-dihydro-1H-indazole-4-carboxamide], on PARP-2, the DC50 stood at 5.94 µM and the equilibrium dissociation constant (Kd) is 5 µM. In addition, the DC50 at PARP-3 is greater than 10 µM.
`NC(=O)c1cccc2[nH]n(C3CCN(CC4CCCCC4)CC3)c(=O)c12` [Compound 31, 2-[1-(cyclohexylmethyl)piperidin-4-yl]-3-oxo-2,3-dihydro-1H-indazole-4-carboxamide]: the DC50 on PARP-2 and at PARP-3 was greater than 10 µM each time.
Regarding `Cn1c2cccc(C(N)=O)c2c(=O)n1C1CCN(CC2CCCCC2)CC1` [Compound 33, 2-[1-(cyclohexylmethyl)piperidin-4-yl]-1-methyl-3-oxo-2,3-dihydro-1H-indazole-4-carboxamide], the DC50 at PARP-2 is greater than 10 µM; on PARP-3, 2.9 µM.
In the case of `Cn1c2cccc(C(N)=O)c2c(=O)n1C1CCN(Cc2cccs2)CC1` [Compound 63, 1-methyl-3-oxo-2-[1-(thiophen-2-ylmethyl)piperidin-4-yl]-2,3-dihydro-1H-indazole-4-carboxamide], the values for the DC50 at PARP-2 and at PARP-3 were 3.56 µM and 1.42 µM, respectively.
`NC(=O)c1cccc2[nH]n(C3CCN(CC4CC=CCC4)CC3)c(=O)c12` (stereo not drawn) [Compound 64, 2-[1-(cyclohex-3-en-1-ylmethyl)piperidin-4-yl]-3-oxo-2,3-dihydro-1H-indazole-4-carboxamide]: the DC50 on PARP-2 and at PARP-3 was greater than 10 µM throughout.
For the compound `Cn1c2cccc(C(N)=O)c2c(=O)n1C1CCN(CC2CC=CCC2)CC1` (stereo not drawn) [Compound 65, 2-[1-(cyclohex-3-en-1-ylmethyl)piperidin-4-yl]-1-methyl-3-oxo-2,3-dihydro-1H-indazole-4-carboxamide], at PARP-2, the DC50 turned out to be 4.19 µM. At PARP-3, the DC50 is 1.78 µM. In data set [1], the clearance stood at 53.8 mL/min/kg, the Vd was 3.4 L/kg, the AUC is 4.06 µM·h and the half-life was 1.16 h. Besides, in data set [1], the “C-max (oral)” value is 1.93 µM and the “F on AUC” value worked out at 50%.
On to `NC(=O)c1cccc2[nH]n(C3CCN(Cc4ccco4)CC3)c(=O)c12` [Compound 66, 2-[1-(furan-2-ylmethyl)piperidin-4-yl]-3-oxo-2,3-dihydro-1H-indazole-4-carboxamide], for which the figures for the DC50 at PARP-2 and at PARP-3 were greater than 10 µM and 0.58 µM, respectively.
Regarding `Cn1c2cccc(C(N)=O)c2c(=O)n1C1CCN(Cc2ccco2)CC1` [Compound 67, 2-[1-(furan-2-ylmethyl)piperidin-4-yl]-1-methyl-3-oxo-2,3-dihydro-1H-indazole-4-carboxamide], the DC50 at PARP-2 was 2.29 µM; at PARP-3 it was 2.56 µM.
On to `Cn1nnc2c(C(N)=O)ncn2c1=O` [temozolomide], for which, in data set [2], the “BWL (%)” value turned out to be 2% and the “Max TGI (%)” value was found to be 13%. The Toxicity in data set [2] (seven animals per group) is recorded as 0/7. In addition, the “T-C” value in data set [2] (time to reach 1 g) amounted to 1 days.

Values taken from patent US9073893B2, “3-Oxo-2,3-dihydro-1H-indazole-4-carboxamide derivatives as PARP-1 inhibitors” (priority 2011, dated 2015).
